# Experimental data published in patent US20230023092A1, “TREATMENT OF DEPRESSION AND OTHER VARIOUS DISORDERS WITH PSILOCYBIN” (COMPASS […], priority 2019, published 2023).
# System: healthy subjects
# Assay: Scale of Social Responsibility (SSR)
# Type: in vivo, human
# Procedure: In some embodiments, the Scale of Social Responsibility (SSR) is utilized to evaluate the safety and/or efficacy of psilocybin. The SSR measures perceptions regarding the importance of ethics and social responsibility.
# The Pictorial Empathy Test (PET), Reading the Mind in the Eyes Test (RMET), Scale of Social Responsibility (SSR), Social Value Orientation (SVO), and Toronto Empathy Questionnaire (TEQ) were performed. Table 20 summarizes the results of the mixed model for repeated measures (MMRM) analysis for each of the aforementioned social cognition panel scales measured on Day 7 and Day 84 after study drug administration.
# [1] = Day 7, psilocybin 10 mg - placebo
# [2] = Day 7, psilocybin 25 mg - 10 mg
# [3] = Day 7, psilocybin 25 mg - placebo
# [4] = Day 84, psilocybin 10 mg - placebo
# [5] = Day 84, psilocybin 25 mg - 10 mg
# [6] = Day 84, psilocybin 25 mg - placebo
smiles,measurement,setting,value
"CN(C)CCc1c[nH]c2cccc(OP(=O)(O)O)c12 [Psilocybin, psilocybin]",SSR compliance social rules change from baseline (LS mean),"Day 7, psilocybin 10 mg",−0.1
same,SSR fullfilling expectations change from baseline (LS mean),"Day 7, psilocybin 10 mg",−0.1
same,SSR global change from baseline (LS mean),"Day 7, psilocybin 10 mg",−2.0
same,"SSR compliance social rules change from baseline, LS mean difference",[1],0.0
same,"SSR fullfilling expectations change from baseline, LS mean difference",[1],0.1
same,"SSR global change from baseline, LS mean difference",[1],1.2
same,SSR compliance social rules change from baseline (LS mean),"Day 7, psilocybin 25 mg",0.0
same,SSR fullfilling expectations change from baseline (LS mean),"Day 7, psilocybin 25 mg",−0.0
same,SSR global change from baseline (LS mean),"Day 7, psilocybin 25 mg",−0.3
same,"SSR compliance social rules change from baseline, LS mean difference",[2],0.1
same,"SSR fullfilling expectations change from baseline, LS mean difference",[2],0.1
same,"SSR global change from baseline, LS mean difference",[2],1.6
same,"SSR compliance social rules change from baseline, LS mean difference",[3],0.1
same,"SSR fullfilling expectations change from baseline, LS mean difference",[3],0.2
same,"SSR global change from baseline, LS mean difference",[3],2.8
same,SSR compliance social rules change from baseline (LS mean),"Day 84, psilocybin 10 mg",−0.1
same,SSR fullfilling expectations change from baseline (LS mean),"Day 84, psilocybin 10 mg",−0.2
same,SSR global change from baseline (LS mean),"Day 84, psilocybin 10 mg",−1.8
same,"SSR compliance social rules change from baseline, LS mean difference",[4],−0.0
same,"SSR fullfilling expectations change from baseline, LS mean difference",[4],−0.1
same,"SSR global change from baseline, LS mean difference",[4],0.3
same,SSR compliance social rules change from baseline (LS mean),"Day 84, psilocybin 25 mg",0.0
same,SSR fullfilling expectations change from baseline (LS mean),"Day 84, psilocybin 25 mg",−0.0
same,SSR global change from baseline (LS mean),"Day 84, psilocybin 25 mg",0.1
same,"SSR compliance social rules change from baseline, LS mean difference",[5],0.1
same,"SSR fullfilling expectations change from baseline, LS mean difference",[5],0.2
same,"SSR global change from baseline, LS mean difference",[5],1.8
same,"SSR compliance social rules change from baseline, LS mean difference",[6],0.1
same,"SSR fullfilling expectations change from baseline, LS mean difference",[6],0.0
same,"SSR global change from baseline, LS mean difference",[6],2.2
